From the supplement of paper PMC10307832

Columns and labels:
Assay in all cases: relative viability (nuclei count vs DMSO), 5 days (fraction); higher = more cells survive
[1] = compound: CC[C@@H](C)CNCC(=O)N1CCC2=C([C@@H]1COC3=CC=CC(=C3)C)C=CS2 [RU-SKI 43] + Nc1nc2[nH]cc(CCc3ccc(C(=O)N[C@@H](CCC(=O)O)C(=O)O)cc3)c2c(=O)[nH]1 [Pemetrexed] (partner 0.2 µM)
In short: (§1)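 Each reported value is a median over duplicate plates. It expresses relative viability: treated-well nuclei count divided by vehicle-well nuclei count. Lung cancer cell lines in 1536-well plates were dosed by pin tool a day after seeding, alone with one drug or with a fixed anchor-drug dose plus five library-drug doses (not always all listed) in √10 steps, and nuclei were counted after 5 days.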

[2] = compound: CCc1c2c(nc3ccc(OC(=O)N4CCC(N5CCCCC5)CC4)cc13)-c1cc3c(c(=O)n1C2)COC(=O)[C@]3(O)CC [Irinotecan] + CC(C)C[C@H](NC(=O)[C@H](Cc1ccccc1)NC(=O)c1cnccn1)B(O)O [Bortezomib] (partner 0.002 µM)
In short: as §1

[3] = compound: CCc1c2c(nc3ccc(OC(=O)N4CCC(N5CCCCC5)CC4)cc13)-c1cc3c(c(=O)n1C2)COC(=O)[C@]3(O)CC [Irinotecan] + CCNC(=O)c1noc(-c2cc(C(C)C)c(O)cc2O)c1-c1ccc(CN2CCOCC2)cc1 [Luminespib] (partner 0.01 µM)
In short: as §1

[4] = compound: Cn1cc(-c2cnc3ccc4ccc(CS(=O)(=O)NCc5ccccn5)cc4c(=O)c3c2)cn1 [MK-8033] + CCNC(=O)c1noc(-c2cc(C(C)C)c(O)cc2O)c1-c1ccc(CN2CCOCC2)cc1 [Luminespib] (partner 0.01 µM)
In short: as §1

Cell Line	relative viability ([1]; first compound 0.1 µM)	relative viability ([1]; first compound 0.3162 µM)	relative viability ([1]; first compound 1 µM)	relative viability ([1]; first compound 3.162 µM)	relative viability ([1]; first compound 10 µM)	relative viability ([2]; first compound 0.6325 µM)	relative viability ([2]; first compound 2 µM)	relative viability ([2]; first compound 6.325 µM)	relative viability ([2]; first compound 20 µM)	relative viability ([3]; first compound 0.6325 µM)	relative viability ([3]; first compound 2 µM)	relative viability ([3]; first compound 6.325 µM)	relative viability ([3]; first compound 20 µM)	relative viability ([4]; first compound 0.02 µM)	relative viability ([4]; first compound 0.06325 µM)	relative viability ([4]; first compound 0.2 µM)	relative viability ([4]; first compound 0.6325 µM)	relative viability ([4]; first compound 2 µM)
LCLC-103H	0.469	0.464	0.482	0.492	0.5	0.813	0.76	0.518	0.557	0.83	0.502	0.348	0.501	0.95	0.927	0.954	0.866	0.952
LOU-NH91	0.399	0.345	0.456	0.389	0.378	0.486	0.442	0.359	0.413	0.371	0.323	0.301	0.28	0.318	0.335	0.349	0.379	0.326
LU99A	0.164	0.207	0.168	0.19	0.162	0.42	0.326	0.18	0.249	0.174	0.184	0.206	0.207	0.24	0.272	0.258	0.177	0.241
LXF-289	0.924	0.862	0.939	0.902	0.999	0.896	0.987	0.263	0.205	0.592	0.288	0.176	0.208	0.66	0.654	0.591	0.665	0.643
NCI-H23	0.787	0.687	0.834	0.715	0.705	0.941	0.664	0.291	0.306	0.228	0.394	0.332	0.241	0.245	0.216	–	0.204	0.198
NCI-H322M	0.642	0.68	0.662	0.673	0.572	1.34	0.859	0.564	0.347	0.844	0.777	0.529	0.181	0.85	0.85	0.78	0.873	0.842
NCI-H441	0.28	0.273	0.277	0.255	0.219	0.413	0.378	0.435	0.358	0.231	0.332	0.304	0.309	0.403	0.375	0.352	0.336	0.305
NCI-H460	0.0581	0.0578	0.0612	0.0618	0.0606	0.677	0.353	0.0854	0.0632	0.019	0.0388	0.0428	0.047	0.0295	0.038	0.0269	0.0415	0.0328
NCI-H520	0.651	0.801	0.831	0.858	0.636	0.446	0.477	0.252	0.138	0.249	0.257	0.256	0.303	0.22	0.207	0.226	0.211	0.219
NCI-H596	0.537	0.473	0.552	0.507	0.508	0.867	1.09	0.709	0.79	0.884	0.963	0.71	0.801	1.02	0.987	0.802	1.01	0.946
NCI-H647	0.169	0.178	0.199	0.169	0.169	0.76	0.462	0.227	0.103	0.152	0.212	0.157	0.119	0.119	0.178	0.213	0.151	0.154
NCI-H650	0.907	0.962	–	0.879	0.932	0.689	0.507	0.262	0.385	0.635	0.322	0.139	0.199	0.827	0.787	0.819	0.833	0.769
NCI-H661	0.874	1.05	0.902	0.952	0.861	0.701	0.609	0.354	0.285	0.848	0.822	0.41	0.195	0.926	0.938	0.893	0.948	0.872
NCI-H838	0.256	0.248	0.251	0.251	0.249	0.986	0.588	0.583	0.149	0.23	0.262	0.213	0.266	0.248	0.292	0.335	0.296	0.273
NCI-H1355	1.02	1.09	1.09	1.14	1.05	1.02	1.12	0.561	0.265	–	0.515	0.308	0.278	0.695	0.686	0.607	0.74	0.646
NCI-H1437	0.318	0.352	0.328	0.306	0.295	0.399	0.355	0.285	0.171	0.955	0.723	0.4	0.338	1.11	1	1.05	1.08	1.04
NCI-H1563	0.772	0.785	0.84	0.725	0.733	0.598	0.891	0.871	0.477	0.608	0.269	0.497	0.524	0.491	0.589	0.541	0.483	0.539
NCI-H1650	0.344	0.37	0.439	0.377	0.322	0.188	0.198	0.244	0.133	–	0.212	0.277	0.271	0.193	0.205	0.204	0.203	0.181

Cell Line	relative viability ([1]; first compound 0.1 µM)	relative viability ([1]; first compound 0.3162 µM)	relative viability ([1]; first compound 1 µM)	relative viability ([1]; first compound 3.162 µM)	relative viability ([1]; first compound 10 µM)	relative viability ([2]; first compound 0.6325 µM)	relative viability ([2]; first compound 2 µM)	relative viability ([2]; first compound 6.325 µM)	relative viability ([2]; first compound 20 µM)	relative viability ([3]; first compound 0.6325 µM)	relative viability ([3]; first compound 2 µM)	relative viability ([3]; first compound 6.325 µM)	relative viability ([3]; first compound 20 µM)	relative viability ([4]; first compound 0.02 µM)	relative viability ([4]; first compound 0.06325 µM)	relative viability ([4]; first compound 0.2 µM)	relative viability ([4]; first compound 0.6325 µM)	relative viability ([4]; first compound 2 µM)
NCI-H1651	0.556	0.701	0.744	0.557	0.59	–	0.849	0.553	0.227	0.573	0.522	0.281	0.2	1.02	0.846	0.733	0.853	0.874
NCI-H1666	0.864	0.914	0.901	0.815	0.844	0.608	0.419	0.414	0.214	0.858	0.721	0.658	0.331	1	0.987	0.979	1.03	0.924
NCI-H1734	0.44	0.406	0.426	0.41	0.407	0.797	0.674	0.207	0.174	–	0.203	0.222	0.353	0.173	0.177	0.176	0.182	0.17
NCI-H1755	0.374	0.466	0.378	0.377	0.637	0.9	0.935	0.355	0.327	0.433	0.415	0.299	0.241	0.371	0.387	0.411	0.282	0.467
NCI-H1792	0.734	1.04	1.24	0.77	0.842	0.955	1.17	0.486	0.192	0.726	0.491	0.34	0.321	0.383	0.34	0.442	0.217	0.273
NCI-H1915	0.483	0.693	0.602	0.515	0.443	0.537	0.445	0.24	0.148	0.346	0.36	0.149	0.132	0.728	0.8	0.676	0.827	0.668
NCI-H1975	0.311	0.298	0.341	0.327	0.292	0.294	0.31	0.278	0.129	0.107	0.201	0.175	0.235	0.195	0.24	0.176	0.203	0.15
NCI-H1993	0.59	0.625	0.558	0.624	0.465	1.1	0.968	0.613	0.399	0.784	0.745	0.667	1.58	0.733	0.838	0.827	0.964	0.73
NCI-H2009	1.06	1.17	1.14	1.06	1.08	0.294	0.515	0.228	0.0808	0.863	0.486	0.25	0.252	0.987	0.921	0.978	0.999	1
NCI-H2023	0.249	0.259	0.286	0.21	0.243	0.435	0.686	0.162	0.0682	0.467	0.256	0.127	0.0843	0.758	0.652	0.652	0.693	0.634
NCI-H2085	1.02	0.899	0.894	0.85	0.845	0.847	1.01	0.535	0.494	0.312	0.431	0.445	0.519	0.471	0.483	0.378	0.447	0.415
NCI-H2087	0.684	0.762	0.714	0.694	0.692	0.442	0.476	0.18	0.248	0.158	0.183	0.2	0.261	0.119	0.174	0.148	0.242	0.148
NCI-H2126	0.724	0.745	0.682	0.739	0.709	–	1.08	0.632	0.34	–	0.773	0.379	0.167	0.905	0.757	0.817	0.836	0.872
NCI-H2228	0.288	0.353	0.302	0.376	0.299	0.689	0.685	0.514	0.343	0.14	0.177	0.318	0.276	0.178	0.0977	0.163	0.161	0.208
NCI-H2347	0.404	0.513	0.431	0.52	0.538	0.512	0.918	0.493	0.555	0.355	0.365	0.284	0.321	0.362	0.277	0.473	0.408	0.556
NCI-H2405	1.16	1.14	1.11	1.21	1.13	0.573	0.931	0.662	0.299	–	0.606	0.312	0.262	0.711	0.614	0.65	0.64	0.814
NCI-H3122	0.202	0.216	0.198	0.193	0.19	1.05	0.824	0.252	0.259	0.0615	0.114	0.0849	0.109	0.0907	0.0983	0.0777	0.0917	0.0881
